How the values were obtained:
Staphylococcus aureus [1] = assay: Antibiotic resistance profile, disc diffusion; also: key: R = resistant; I = intermediate; S = sensitive; format: cell-based; settings: S. aureus isolated from burn patients
Enterococcus faecalis [2] = assay: Antibiotic resistance profile, disc diffusion; also: key: R = resistant; I = intermediate; S = sensitive; format: cell-based; settings: E. faecalis isolated from burn patients
Pseudomonas aeruginosa [3] = assay: Antibiotic resistance profile, disc diffusion; also: key: R = resistant; I = intermediate; S = sensitive; format: cell-based; settings: P. aeruginosa isolated from burn patients
[4] = tested on: surface ulcers with multiple resistant pathogenic species; assay: Bath treatment of ulcerated Koi; format: in vivo, Koi (Cyprinus carpio); settings: antibiotics injected directly into the fish before the bath treatment
Protocol: An immersion treatment of the infected animals of 5 to 10 minutes on alternate days over a six day period promoted healing of most ulcers.
All of the treated fish had previously been given injections of Azactam, Baytril, and Amikacin. […] Among the species of bacteria found in the ulcers of the fish were representatives of the genera Aeromonas, Proteus, Klebsiella, Staphylococcus, Streptococcus, Enterobacter and Flavobacterium.
All fish were housed in a communal “hospital tank” before treatment and moved to an isolation tank after each treatment. The temperature of the bath was adjusted to that of the hospital tank temperature, 24 C, and adequate aeration was supplied to the treatment tank. Eight of the fish had external ulcers of various dimensions. Two of the fish were dropsied.

Enterococcus faecalis [5] = assay: MIC/MBC and checkerboard of EDTA-Tris and neomycin; format: cell-based; settings: in 50 mM Tris
Protocol: (§1) This example describes a method for determining the FIC values set forth in Example 4. […] Agents and Chem. pp. 210-217 (1967); and Sparks et al., Vet. Res. Comm. 18:241-249 (1994). Each of the foregoing publications are incorporated herein by reference.
(§2) Then 0.05 ml of an 18-hour old culture of a test organism, containing […] colony-forming units (CFU) ml, were added to each well. Controls for the culture and media were included in each plate. Plates were covered and incubated at 37° C. for 18-24 hours.
(§3) To generate isobolograms, FICs of the two test solutions were plotted individually on the x-axis and y-axis to determine the effect of combining the two test solutions on bacterial growth. A line that curves away from the zero point and the coordinates indicated antagonism. […] Goodman and Gilman, pp. 1085-1086 (Macmillan Publishing Co., New York, 1985); Sabath, L. D., Antimicrob. Agents and Chem. pp. 210-217 (1967) and incorporated herein by reference in their entireties.
(§4) A numerical score or Fractional Inhibitory Concentration (FIC) index was determined. The FIC index is equal to the sum of the values of FIC for the individual drugs:
(§5) An FIC index greater than 1.0 indicated an antagonistic interaction, an FIC index of 1.0 indicated addition, and an FIC index of less than or equal to 0.5 indicated synergism between the two test agents.
(§6) The organisms of this study were isolated from human burn patients. They included strains of methicillin resistant Staphylococcus aureus, and vancomycin resistant strains of Pseudomonas aeruginosa and Enterococcus faecalis. The bacterial isolates were propagated in or on Brain Heart Infusion broth (BHI), Mueller-Hinton Broth (MHB), blood agar (BA), Mueller-Hinton agar (MBA), enterococcus agar (EA), or 2× nutrient agar (2× NA).
(§7) 307 (pub: Am. Soc. Microbiol. Williams and Wilkins, Baltimore 1970), incorporated herein by reference in its entirety.

Staphylococcus aureus [6] = assay: MIC/MBC and checkerboard of EDTA-Tris and neomycin; format: cell-based; settings: in 50 mM Tris
Protocol: as §1, §2, §3, §4, §5, §6, §7

Pseudomonas aeruginosa [7] = assay: MIC/MBC and checkerboard of EDTA-Tris and neomycin; format: cell-based; settings: in 50 mM Tris
Protocol: as §1, §2, §3, §4, §5, §6, §7

Aeromonas caviae = assay: MIC and FIC of EDTA and neomycin, Aeromonas isolated from ulcerated fish; format: cell-based; settings: A. caviae
Protocol: (§8) This example describes a method for determining the FIC values set forth in Example 4. […] Agents and Chem. pp. 210-217 (1967); and Sparks et al., Vet. Res. Comm. 18:241-249 (1994). Each of the foregoing publications are incorporated herein by reference. […] Then 0.05 ml of an 18-hour old culture of a test organism, containing […] colony-forming units (CFU) ml, were added to each well. Controls for the culture and media were included in each plate. Plates were covered and incubated at 37° C. for 18-24 hours. A numerical score or Fractional Inhibitory Concentration (FIC) index was determined. The FIC index is equal to the sum of the values of FIC for the individual drugs: An FIC index greater than 1.0 indicated an antagonistic interaction, an FIC index of 1.0 indicated addition, and an FIC index of less than or equal to 0.5 indicated synergism between the two test agents.

Aeromonas hydrophila = assay: as above; format: cell-based; settings: A. hydrophila
Protocol: as §8

Aeromonas sobria = assay: as above; format: cell-based; settings: A. sobria
Protocol: as §8

Staphylococcus aureus [8] = assay: MIC/MBC of Tris, EDTA, cocamidopropyl betaine and silver combinations, human burn isolates; format: cell-based; settings: S. aureus isolated from a human burn patient; x = multiple of the stock solution
Pseudomonas aeruginosa [9] = assay: as above; format: cell-based; settings: P. aeruginosa isolated from a human burn patient; x = multiple of the stock solution
Malassezia pachydermatis = assay: MIC/MBC of cocamidopropyl betaine, Tris-EDTA and their combination, dog isolates; format: cell-based
Protocol: (§9) The formulation was tested against Pseudomonas aeruginosa, Proteus mirabilis, Escherichia coli, Staphylococcus intermedius, Malessezia pachydermatis, and Candida albicans.

Candida albicans = assay: as above; format: cell-based
Protocol: as §9

Proteus mirabilis = assay: as above; format: cell-based
Protocol: as §9

[10] = tested on: Staphylococcus intermedius; assay: as above; format: cell-based
Protocol: as §9

Escherichia coli = assay: as above; format: cell-based
Protocol: as §9

Pseudomonas aeruginosa [11] = assay: as above; format: cell-based
Protocol: as §9

[12] = M. pachydermatis from dogs, x = multiple of the 1x stock solution
[13] = C. albicans from dogs, x = multiple of the 1x stock solution
[14] = P. mirabilis from dogs, x = multiple of the 1x stock solution
[15] = S. intermedius from dogs, x = multiple of the 1x stock solution
[16] = E. coli isolated from a dog with otitis externa, x = multiple of the 1x stock solution
[17] = P. aeruginosa from dogs with otitis externa and pyoderma, x = multiple of the 1x stock solution

## CN(C)[C@@H]1C(O)=C(C(N)=O)C(=O)[C@@]2(O)C(O)=C3C(=O)c4c(O)cccc4[C@@](C)(O)[C@H]3C[C@@H]12 [Te, tetracycline]
Staphylococcus aureus [1]
  Antibiotic resistance profile: S
Enterococcus faecalis [2]
  Antibiotic resistance profile: R
Pseudomonas aeruginosa [3]
  Antibiotic resistance profile: R

## CCn1cc(C(=O)O)c(=O)c2ccc(C)nc21 [NA, nalidixic acid]
Staphylococcus aureus [1]
  Antibiotic resistance profile: R
Enterococcus faecalis [2]
  Antibiotic resistance profile: R
Pseudomonas aeruginosa [3]
  Antibiotic resistance profile: R

## CN[C@H](CC(C)C)C(=O)N[C@H]1C(=O)N[C@@H](CC(N)=O)C(=O)N[C@H]2C(=O)N[C@H]3C(=O)N[C@H](C(=O)N[C@H](C(=O)O)c4cc(O)cc(O)c4-c4cc3ccc4O)[C@H](O)c3ccc(c(Cl)c3)Oc3cc2cc(c3O[C@@H]2O[C@H](CO)[C@@H](O)[C@H](O)[C@H]2O[C@H]2C[C@](C)(N)[C@H](O)[C@H](C)O2)Oc2ccc(cc2Cl)[C@H]1O [Va, vancomycin]
Staphylococcus aureus [1]
  Antibiotic resistance profile: S
Enterococcus faecalis [2]
  Antibiotic resistance profile: R
Pseudomonas aeruginosa [3]
  Antibiotic resistance profile: R

## gentamicin [GM]
Staphylococcus aureus [1]
  Antibiotic resistance profile: S
Enterococcus faecalis [2]
  Antibiotic resistance profile: R
Pseudomonas aeruginosa [3]
  Antibiotic resistance profile: I

## NCC[C@H](O)C(=O)N[C@@H]1C[C@H](N)[C@@H](O[C@H]2O[C@H](CN)[C@@H](O)[C@H](O)[C@H]2O)[C@H](O)[C@H]1O[C@H]1O[C@H](CO)[C@@H](O)[C@H](N)[C@H]1O [Amikacin]
[4]
  Healing of ulcers: failed to heal visible ulcers

## [H]/N=C(/N)N[C@H]1[C@H](O)[C@@H](O)[C@H](O[C@@H]2O[C@@H](C)[C@](O)(C=O)[C@H]2O[C@@H]2O[C@@H](CO)[C@H](O)[C@@H](O)[C@@H]2NC)[C@@H](N/C(N)=N\[H])[C@@H]1O [S, streptomycin]
Staphylococcus aureus [1]
  Antibiotic resistance profile: S
Enterococcus faecalis [2]
  Antibiotic resistance profile: R
Pseudomonas aeruginosa [3]
  Antibiotic resistance profile: R

## NC[C@H]1O[C@H](O[C@H]2[C@H](O)[C@@H](O[C@H]3O[C@H](CO)[C@@H](O)[C@H](N)[C@H]3O)[C@H](N)C[C@@H]2N)[C@H](O)[C@@H](O)[C@@H]1O [K, kanamycin]
Staphylococcus aureus [1]
  Antibiotic resistance profile: R
Enterococcus faecalis [2]
  Antibiotic resistance profile: R
Pseudomonas aeruginosa [3]
  Antibiotic resistance profile: R

## Cc1noc(NS(=O)(=O)c2ccc(N)cc2)c1C [G, sulfisoxazole]
Staphylococcus aureus [1]
  Antibiotic resistance profile: S
Enterococcus faecalis [2]
  Antibiotic resistance profile: R
Pseudomonas aeruginosa [3]
  Antibiotic resistance profile: R

## neomycin
Staphylococcus aureus [1]
  Antibiotic resistance profile: R
Enterococcus faecalis [5]
  MBC, individually administered: 25000 µg/mL
Staphylococcus aureus [6]
  MBC, individually administered: 3130 µg/mL
Pseudomonas aeruginosa [7]
  MBC, individually administered: 5000 µg/mL
Aeromonas caviae
  MIC, neomycin alone: 12.5 µg/mL
Aeromonas hydrophila
  MIC, neomycin alone: 200 µg/mL
Aeromonas sobria
  MIC, neomycin alone: 12.5 µg/mL
Enterococcus faecalis [2]
  Antibiotic resistance profile: R
Pseudomonas aeruginosa [3]
  Antibiotic resistance profile: R

## CC[C@H]1OC(=O)[C@H](C)[C@@H](O[C@H]2C[C@@](C)(OC)[C@@H](O)[C@H](C)O2)[C@H](C)[C@@H](O[C@@H]2O[C@H](C)C[C@H](N(C)C)[C@H]2O)[C@](C)(O)C[C@@H](C)C(=O)[C@H](C)[C@@H](O)[C@]1(C)O [E, erythromycin]
Staphylococcus aureus [1]
  Antibiotic resistance profile: R
Enterococcus faecalis [2]
  Antibiotic resistance profile: R
Pseudomonas aeruginosa [3]
  Antibiotic resistance profile: R

## cocamidopropyl betaine
Staphylococcus aureus [8]
  MBC: 0.001x
  MIC: 0.001x
Pseudomonas aeruginosa [9]
  MBC: 0.5x
  MIC: 0.25x
Malassezia pachydermatis; M. pachydermatis
  MBC: 0.3% of stock solution
  MIC: 0.1% of stock solution
Malassezia pachydermatis; [12]
  MBC: 0.003x
  MIC: 0.001x
Candida albicans; C. albicans
  MBC: 0.3% of stock solution
  MIC: 0.1% of stock solution
Candida albicans; [13]
  MBC: 0.003x
  MIC: 0.001x
Proteus mirabilis; P. mirabilis
  MBC: 50% of stock solution
  MIC: 25% of stock solution
Proteus mirabilis; [14]
  MBC: 0.5x
  MIC: 0.25x
[10]; S. intermedius
  MBC: 0.1% of stock solution
  MIC: 0.1% of stock solution
[10]; [15]
  MBC: 0.001x
  MIC: 0.001x
Escherichia coli; E. coli
  MBC: 50% of stock solution
  MIC: 25% of stock solution
Escherichia coli; [16]
  MBC: 0.5x
  MIC: 0.25x
Pseudomonas aeruginosa [11]; P. aeruginosa
  MBC: 50% of stock solution
  MIC: 25% of stock solution
Pseudomonas aeruginosa [11]; [17]
  MBC: 0.5x
  MIC: 0.25x

## C[C@H]1[C@H](NC(=O)/C(=N\OC(C)(C)C(=O)O)c2csc(N)n2)C(=O)N1S(=O)(=O)O [Azactam]
[4]
  Healing of ulcers: failed to heal visible ulcers

## O=C(N[C@H](CO)[C@H](O)c1ccc([N+](=O)[O-])cc1)C(Cl)Cl [C, chloramphenicol]
Staphylococcus aureus [1]
  Antibiotic resistance profile: I
Enterococcus faecalis [2]
  Antibiotic resistance profile: R
Pseudomonas aeruginosa [3]
  Antibiotic resistance profile: R

## O=C(O)CN(CCN(CC(=O)O)CC(=O)O)CC(=O)O [EDTA, ethylenediaminetetraacetate]
Enterococcus faecalis [5]
  MBC, individually administered: 250 mM
Pseudomonas aeruginosa [7]
  MBC, individually administered: 250 mM
Aeromonas caviae
  MIC, EDTA in 50 mM Tris alone: <0.49
Aeromonas sobria
  MIC, EDTA in 50 mM Tris alone: 15.6

## oxacillin/methicillin
Staphylococcus aureus [1]
  Antibiotic resistance profile: R
Enterococcus faecalis [2]
  Antibiotic resistance profile: R
Pseudomonas aeruginosa [3]
  Antibiotic resistance profile: R

## CC1(C)S[C@@H]2[C@H](NC(=O)[C@H](N)c3ccccc3)C(=O)N2[C@H]1C(=O)O [Am, ampicillin]
Staphylococcus aureus [1]
  Antibiotic resistance profile: R^B
Enterococcus faecalis [2]
  Antibiotic resistance profile: S
Pseudomonas aeruginosa [3]
  Antibiotic resistance profile: R

## CCN1CCN(c2cc3c(cc2F)c(=O)c(C(=O)O)cn3C2CC2)CC1 [Baytril]
[4]
  Healing of ulcers: failed to heal visible ulcers

From US20100324132A1, “METHODS AND COMPOSITIONS FOR PROMOTING WOUND HEALING” (priority 2005, published 2010)
